In test [1] the test system is L6-myotubes. As to the kind of experiment: Measurement of intracellular cAMP levels in differentiated L6-myotubes (Biological Example 3). The test is classed as cell-based. The settings on record: 0.25 h. A digest of the protocol: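 Serum-starved differentiated L6 myotubes stimulated 15 min with test compound at 1×10^−5 M final (isoprenaline as reference) in HBSS with 1% BSA, 5 mM HEPES, 1 mM IBMX, pH 7.4. Cells EtOH-extracted, lysed, and intracellular cAMP measured by AlphaScreen.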
(In general: Changes in cAMP serve as a functional read-out for many G protein-coupled receptors.)

Test [2] concerns L6-myotubes. As to the kind of experiment: Glucose uptake in differentiated L6-myotubes (Biological Example 2). The test is classed as cell-based. The conditions noted are these: read-out: Biological example 2 (GU). Summed up:
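Differentiated L6 myotubes were serum-starved overnight in 0.5% fatty-acid-free BSA and then stimulated with compound or isoprenaline at 1×10^−5 M final. After 1 h 40 min cells were washed and re-dosed in glucose-free medium. Twenty minutes later, uptake of 50 nM ^3H-2-deoxyglucose over 10 min was measured by scintillation counting of NaOH lysates.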

Where [3] appears, read: intracellular cAMP, compound at 10 μM relative to isoproterenol at 10 μM.
Where [4] appears, read: glucose uptake, compound at 10 μM relative to isoproterenol at 10 μM.
The mark [5] stands for this setting: intracellular cAMP in differentiated L6-myotubes, compound at 10 μM, activity relative to isoproterenol at 10 μM.
Setting [6] is: glucose uptake in differentiated L6-myotubes, compound at 10 μM, activity relative to isoproterenol at 10 μM.

Where only a bound is given, the exact number is not on record here.

For `CC12CCC([C@H](O)c3cccc(F)c3)(CC1)N2` [Compound 179, (R)-(m-fluorophenyl)(4-methyl-7-azabicyclo[[2.2.1]]hept-1-yl)methanol], the Emax at 10 µM in test [1] (setting [3]) was under 25%; in test [2] (setting [4]), 50 to 75%.
In the case of `CC12CCC([C@@H](O)c3ccccc3F)(CC1)N2` [Compound 180, (S)-(o-fluorophenyl)(4-methyl-7-azabicyclo[[2.2.1]]hept-1-yl)methanol], the Emax at 10 µM is under 25% in test [1] (setting [3]) and over 75% in test [2] (setting [4]).
The corresponding values for `CC12CCC([C@H](O)c3ccccc3F)(CC1)N2` [Compound 181, (R)-(o-fluorophenyl)(4-methyl-7-azabicyclo[[2.2.1]]hept-1-yl)methanol] are under 25% and over 75%.
On to `CCC12CCC([C@@H](O)c3cccc(F)c3)(CC1)N2` [Compound 182, (S)-(m-fluorophenyl)(4-propyl-7-azabicyclo[[2.2.1]]hept-1-yl)methanol], for which the Emax at 10 µM in test [1] (setting [3]) and in test [2] (setting [4]) was under 25% each time.
As for `CCCC12CCC([C@H](O)c3cccc(F)c3)(CC1)N2` [Compound 183, (R)-(m-fluorophenyl)(4-propyl-7-azabicyclo[[2.2.1]]hept-1-yl)methanol], the Emax at 10 µM in test [1] (setting [3]) was in the range of 25 to 50%; in test [2] (setting [4]) it was 50 to 75%.
The corresponding values for `CC12CCC([C@@H](O)c3cncc(F)c3)(CC1)N2` [Compound 184, (S)-(5-fluoro-3-pyridyl)(4-methyl-7-azabicyclo[[2.2.1]]hept-1-yl)methanol] are under 25% and 50 to 75%.
The corresponding values for `CC12CCC([C@H](O)c3cncc(F)c3)(CC1)N2` [Compound 185, (R)-(5-fluoro-3-pyridyl)(4-methyl-7-azabicyclo[[2.2.1]]hept-1-yl)methanol] are under 25% and over 75%.
The corresponding values for `CC12CC(C1)[C@H]([C@H](O)c1cccc(F)c1)N2` [Compound 186] are 50 to 75% and over 75%.
Consider `CC12CC(C1)[C@H]([C@@H](O)c1cccc(F)c1)N2` [Compound 187], for which the Emax at 10 µM was under 25% in test [1] (setting [3]) and 25 to 50% in test [2] (setting [4]).
For the compound `CC12CC(C1)[C@@H]([C@H](O)c1cccc(F)c1)N2` [Compound 188, (R)-{(S)-1-methyl-2-azabicyclo[[2.1.1]]hex-3-yl}(m-fluorophenyl)methanol], the Emax at 10 µM in test [1] (setting [3]) and in test [2] (setting [4]) was under 25% each time.
As for `CC12CC(C1)[C@@H]([C@@H](O)c1cccc(F)c1)N2` [Compound 189], the results for the Emax at 10 µM in test [1] (setting [3]) and in test [2] (setting [4]) were under 25% and 50 to 75%, respectively.
As to `CC1(C)CCC[C@@H]([C@H](O)c2cccc(F)c2)N1` [Compound 190], the Emax at 10 µM is under 25% in test [1] (setting [3]) and over 75% in test [2] (setting [4]).
The corresponding values for `CC1(C)CCC[C@@H]([C@@H](O)c2cccc(F)c2)N1` [Compound 191] are under 25% and 25 to 50%.
Consider `CC1(C)CCC[C@@H]([C@@H](O)c2ccccc2F)N1` [Compound 192, (S)-[(S)-6,6-dimethyl-2-piperidyl](o-fluorophenyl)methanol], for which the Emax at 10 µM is under 25% in test [1] (setting [3]) and 25 to 50% in test [2] (setting [4]).
Regarding `CC1(C)CCC[C@@H]([C@H](O)c2ccccc2F)N1` [Compound 193], the Emax at 10 µM was 25 to 50% in test [1] (setting [3]) and over 75% in test [2] (setting [4]).
`CC12CCC([C@@H](O)c3ccccc3Cl)(CC1)N2` [Compound 194, (S)-(o-chlorophenyl)(4-methyl-7-azabicyclo[[2.2.1]]hept-1-yl)methanol]: the Emax at 10 µM is under 25% in test [1] (setting [3]) and over 75% in test [2] (setting [4]).
The corresponding values for `CC12CCC([C@H](O)c3ccccc3Cl)(CC1)N2` [Compound 195, (R)-(o-chlorophenyl)(4-methyl-7-azabicyclo[[2.2.1]]hept-1-yl)methanol] are under 25% and over 75%.
Turning to `CC12CCC([C@@H](O)c3cccc(Cl)c3)(CC1)N2` [Compound 196, (S)-(m-chlorophenyl)(4-methyl-7-azabicyclo[[2.2.1]]hept-1-yl)methanol], the Emax at 10 µM in test [1] (setting [3]) was under 25%; in test [2] (setting [4]), 25 to 50%.
Taken in the same sequence, the figures for `CC12CCC([C@H](O)c3cccc(Cl)c3)(CC1)N2` [Compound 197, (R)-(m-chlorophenyl)(4-methyl-7-azabicyclo[[2.2.1]]hept-1-yl)methanol] were under 25% and over 75%.
As to `CC1(C)C[C@H]([C@H](O)c2cccc(F)c2)N1` [Compound 198, (R)-[(R)-4,4-dimethyl-2-azetidinyl](m-fluorophenyl)methanol], the Emax at 10 µM was under 25% in test [1] (setting [5]) and over 75% in test [2] (setting [6]).
The corresponding values for `CC1(C)C[C@@H]([C@@H](O)c2cccc(F)c2)N1` [Compound 199] are under 25% and 25 to 50%.
Turning to `CC1(C)C[C@@H]([C@H](O)c2cccc(F)c2)N1` [Compound 200, (R)-[(S)-4,4-dimethyl-2-azetidinyl](m-fluorophenyl)methanol], the Emax at 10 µM in test [1] (setting [5]) and in test [2] (setting [6]) was under 25% in each case.
Turning to `CC1(C)C[C@H]([C@@H](O)c2cccc(F)c2)N1` [Compound 201], the Emax at 10 µM in test [1] (setting [5]) and in test [2] (setting [6]) was under 25% throughout.
Regarding `CC1(C)C[C@@H]([C@H](O)c2ccccc2F)N1` [Compound 202, (R)-[(S)-4,4-dimethyl-2-azetidinyl](o-fluorophenyl)methanol], the Emax at 10 µM in test [1] (setting [5]) and in test [2] (setting [6]) was under 25% each time.
For `CC1(C)C[C@H]([C@@H](O)c2ccccc2F)N1` [Compound 203, (S)-[(R)-4,4-dimethyl-2-azetidinyl](o-fluorophenyl)methanol], the Emax at 10 µM in test [1] (setting [5]) was under 25%; in test [2] (setting [6]) it was 25 to 50%.
The corresponding values for `CC1(C)C[C@H]([C@H](O)c2ccccc2F)N1` [Compound 204, (R)-[(R)-4,4-dimethyl-2-azetidinyl](o-fluorophenyl)methanol] are 25 to 50% and over 75%.
The corresponding values for `CC1(C)C[C@@H]([C@@H](O)c2ccccc2F)N1` [Compound 205, (S)-[(S)-4,4-dimethyl-2-azetidinyl](o-fluorophenyl)methanol] are under 25% and 25 to 50%.
The corresponding values for `CC12CC(C1)[C@H]([C@H](O)c1cccc(Cl)c1)N2` [Compound 206] are under 25% and over 75%.
Regarding `CC12CC(C1)[C@@H]([C@@H](O)c1cccc(Cl)c1)N2` [Compound 207], the Emax at 10 µM in test [1] (setting [5]) is under 25%; in test [2] (setting [6]), 25 to 50%.
In the case of `CC12CC(C1)[C@H]([C@@H](O)c1cccc(Cl)c1)N2` [Compound 208], the Emax at 10 µM in test [1] (setting [5]) is under 25%; in test [2] (setting [6]), 50 to 75%.
With `CC12CC(C1)[C@@H]([C@H](O)c1cccc(Cl)c1)N2` [Compound 209], the Emax at 10 µM in test [1] (setting [5]) is under 25%; in test [2] (setting [6]), 25 to 50%.
The corresponding values for `CC12CC(C1)[C@H]([C@H](O)c1ccccc1F)N2` [Compound 210] are over 75% and over 75%.
For the compound `CC12CC(C1)[C@@H]([C@@H](O)c1ccccc1F)N2` [Compound 211, (S)-{(S)-1-methyl-2-azabicyclo[[2.1.1]]hex-3-yl}(o-fluorophenyl)methanol], the Emax at 10 µM in test [1] (setting [5]) was under 25%; in test [2] (setting [6]), over 75%.
The corresponding values for `CC12CC(C1)[C@H]([C@@H](O)c1ccccc1F)N2` [Compound 212] are under 25% and over 75%.
The corresponding values for `CC12CC(C1)[C@@H]([C@H](O)c1ccccc1F)N2` [Compound 213] are under 25% and over 75%.
The corresponding values for `CC1(C)C[C@H]([C@H](O)c2cncc(F)c2)N1` [Compound 214] are under 25% and over 75%.
For `CC1(C)C[C@@H]([C@@H](O)c2cncc(F)c2)N1` [Compound 215], the Emax at 10 µM in test [1] (setting [5]) was under 25%; in test [2] (setting [6]), 25 to 50%.
The corresponding values for `CC1(C)C[C@@H]([C@H](O)c2cncc(F)c2)N1` [Compound 216] are under 25% and 25 to 50%.
Taken in the same sequence, the figures for `CC1(C)C[C@H]([C@@H](O)c2cncc(F)c2)N1` [Compound 217] were under 25% and 25 to 50%.
The corresponding values for `CCC[C@@H]1CCCC[C@H]([C@@H](O)c2cncc(F)c2)N1` [Compound 218, (S)-[(2R,7R)-7-propyl-2-azepanyl](5-fluoro-3-pyridyl)methanol] are under 25% and under 25%.
`CCC[C@@H]1CCCC[C@H]([C@H](O)c2cncc(F)c2)N1` [Compound 219, (R)-[(2R,7R)-7-propyl-2-azepanyl](5-fluoro-3-pyridyl)methanol]: the Emax at 10 µM in test [1] (setting [5]) and in test [2] (setting [6]) was under 25% in each case.
As to `CC12CC(C1)[C@H]([C@H](O)c1cncc(F)c1)N2` [Compound 220, (R)-{(R)-1-methyl-2-azabicyclo[[2.1.1]]hex-3-yl}(5-fluoro-3-pyridyl)methanol], the Emax at 10 µM in test [1] (setting [5]) is under 25%; in test [2] (setting [6]) it was over 75%.
